Laboratory results published in PMC9202147, “In vitro anti-HIV and cytotoxic effects of pure compounds isolated from Croton macrostachyus Hochst. Ex Delile” (BMC Complementary Medicine and Therapies, 2022).
Values after ≈ are worked out from the molar mass of the structure shown.

System: HIV-1IIIB virus
Assay: Anti-HIV activity: inhibition of HIV-1-induced cytopathic effect in MT-4 cells, MTT colorimetric assay
Format: cell-based
Conditions: Human immunodeficiency virus 1, MT4, 120 h, HIV-1IIIB-infected MT-4 cells, 5 days, MTT; mean ± S.E.M (n = 3); read-out: EmaxAV (maximum antiviral effect %, inhibition of virus-induced CPE)
Method: The effects of the test compounds in preventing cytopathic effects that occur because of HIV-1 replication were evaluated by MTT colorimetric assay. MT-4 cells suspended at 1 X 10^8 cells/ml were infected with 640 μL of HIV-1IIIB virus at 1.26 X10^8 TCID50/ml. After infection, 200 μl HIV-infected MT-4 cells (1 X10^5 cells/well) in growth media were added to each well. The plates were preincubated for 24 h at 37 °C to allow stabilization. Then, 50 μL of the test compounds (at a concentration of 4 mg/ml) were added to the first column of the well. With a multichannel pipette, 50 μL was transferred (in triplicate) from the wells labeled 1 to wells labeled 2. Such transfers were continued (serial dilution), moving from left to right, changing tips prior to mixing contents of the next column of wells. Finally, 50 μL was discarded from the wells in column 12. Different concentrations ([…]) of test compounds were prepared through serial dilution. Each dilution was tested in triplicates. The microtiter plates were incubated at 37 °C in a 5% CO2 incubator for 5 days. […] After 5 days of incubation, cell viability was determined by the MTT assay described. All compounds were assayed in triplicate.

SMILES | Emax [%]
C=C(C)[C@@H]1CC[C@]2(C)CC[C@]3(C)[C@H](CC[C@@H]4[C@@]5(C)CC[C@H](O)C(C)(C)[C@@H]5CC[C@]43C)[C@@H]12 [Compound 5, lupeol] | 77.01 ± 0.38
C=C(C)[C@@H]1CC[C@]2(CO)CC[C@]3(C)[C@H](CC[C@@H]4[C@@]5(C)CC[C@H](O)C(C)(C)[C@@H]5CC[C@]43C)[C@@H]12 [Compound 4, betulin] | 76
C=C(C)[C@@H]1CC[C@]2(C)CC[C@]3(C)[C@H](CC[C@@H]4[C@@]5(C)CCC(=O)C(C)(C)[C@@H]5CC[C@]43C)[C@@H]12 [Compound 2, lupenone] | 64.74 ± 0.52
COc1ccccc1COC(=O)c1ccccc1 [Compound 1, 2-methoxy benzyl benzoate] | 53.2 ± 3.35

Same assay, conditions: Human immunodeficiency virus 1, MT4, 120 h, read-out: EmaxAV (maximum antiviral effect %, inhibition of virus-induced CPE)

SMILES | Emax [%]
CC[C@H](/C=C/[C@@H](C)[C@H]1CC[C@H]2[C@@H]3CC=C4C[C@@H](O)CC[C@]4(C)[C@H]3CC[C@]12C)C(C)C [Compound 7, stigmasterol] | 76.8 ± 23.2

Same assay, conditions: Human immunodeficiency virus 1, MT4, 120 h, read-out: IC50 (50% antiviral effect concentration)

SMILES | IC50 [µg/mL]
CC[C@H](/C=C/[C@@H](C)[C@H]1CC[C@H]2[C@@H]3CC=C4C[C@@H](O)CC[C@]4(C)[C@H]3CC[C@]12C)C(C)C [Compound 7, stigmasterol] | 0.14 ± 0.04

Same assay, conditions: Human immunodeficiency virus 1, MT4, 120 h, read-out: IC50 (50% antiviral effect concentration); HIV-1IIIB-infected MT-4 cells, 5 days, MTT; mean ± S.E.M (n = 3)

SMILES | IC50 [µg/mL]
C=C(C)[C@@H]1CC[C@]2(C)CC[C@]3(C)[C@H](CC[C@@H]4[C@@]5(C)CC[C@H](O)C(C)(C)[C@@H]5CC[C@]43C)[C@@H]12 [Compound 5, lupeol] | 0.047 ± 0.02
C=C(C)[C@@H]1CC[C@]2(CO)CC[C@]3(C)[C@H](CC[C@@H]4[C@@]5(C)CC[C@H](O)C(C)(C)[C@@H]5CC[C@]43C)[C@@H]12 [Compound 4, betulin] | 0.002 ± 0.04
C=C(C)[C@@H]1CC[C@]2(C)CC[C@]3(C)[C@H](CC[C@@H]4[C@@]5(C)CCC(=O)C(C)(C)[C@@H]5CC[C@]43C)[C@@H]12 [Compound 2, lupenone] | 0.002 ± 0.001
COc1ccccc1COC(=O)c1ccccc1 [Compound 1, 2-methoxy benzyl benzoate] | 0.25 ± 0.02

Same assay, conditions: Human immunodeficiency virus 1, MT4, read-out: anti-HIV-1 inhibition IC50

SMILES | IC50 [nM]
C=C(C)[C@@H]1CC[C@]2(CO)CC[C@]3(C)[C@H](CC[C@@H]4[C@@]5(C)CC[C@H](O)C(C)(C)[C@@H]5CC[C@]43C)[C@@H]12 [Compound 4, betulin] | 4.5

Same assay, conditions: Human immunodeficiency virus 1, MT4; as stated in abstract/conclusions; read-out: anti-HIV-1 inhibition IC50

SMILES | IC50 [nM]
C=C(C)[C@@H]1CC[C@]2(C)CC[C@]3(C)[C@H](CC[C@@H]4[C@@]5(C)CCC(=O)C(C)(C)[C@@H]5CC[C@]43C)[C@@H]12 [Compound 2, lupenone] | 4.7

Same assay, conditions: Human immunodeficiency virus 1, MT4; as stated in abstract; read-out: anti-HIV-1 inhibition IC50

SMILES | IC50 [µg/mL]
C=C(C)[C@@H]1CC[C@]2(CO)CC[C@]3(C)[C@H](CC[C@@H]4[C@@]5(C)CC[C@H](O)C(C)(C)[C@@H]5CC[C@]43C)[C@@H]12 [Compound 4, betulin] | 4.5

Same assay, conditions: ratio of CC50 to EC50, MT-4 cells

SMILES | SI (selective index)
C=C(C)[C@@H]1CC[C@]2(C)CC[C@]3(C)[C@H](CC[C@@H]4[C@@]5(C)CC[C@H](O)C(C)(C)[C@@H]5CC[C@]43C)[C@@H]12 [Compound 5, lupeol] | 3048.2
C=C(C)[C@@H]1CC[C@]2(CO)CC[C@]3(C)[C@H](CC[C@@H]4[C@@]5(C)CC[C@H](O)C(C)(C)[C@@H]5CC[C@]43C)[C@@H]12 [Compound 4, betulin] | 15,551.2
C=C(C)[C@@H]1CC[C@]2(C)CC[C@]3(C)[C@H](CC[C@@H]4[C@@]5(C)CCC(=O)C(C)(C)[C@@H]5CC[C@]43C)[C@@H]12 [Compound 2, lupenone] | 14,084.0
CC[C@H](/C=C/[C@@H](C)[C@H]1CC[C@H]2[C@@H]3CC=C4C[C@@H](O)CC[C@]4(C)[C@H]3CC[C@]12C)C(C)C [Compound 7, stigmasterol] | 86.5
COc1ccccc1COC(=O)c1ccccc1 [Compound 1, 2-methoxy benzyl benzoate] | 0.0073

System: not listed separately
Assay: in vitro
Conditions: human, CC50 (50% cytotoxic concentration), MT-4 cells, 5 days, MTT; mean ± S.E.M (n = 3)
Method: (§1) A cytotoxicity test was conducted to evaluate the safety of the plant extracts by measuring cell death caused by the plant extracts. The assay was conducted using an MTT colorimetric assay. The MTT assay was based on the reduction of the yellow-colored tetrazolium salt MTT 3-(4,5-dimethylthiazol-2-yl)-2,5-diphenyltetrazolium bromide) by NAD(P)H-dependent cellular oxidoreductase enzymes to an insoluble dark-blue colored formazan that can be measured spectrophotometrically. Formazan production indicates the number of viable cells; therefore, an increase or decrease in cellular viability results in a change in the amount of formazan formed, which indicates the degree of cellular cytotoxicity (CC50) caused by the plant extract. MTT (3-(4,5-dimethylthiazol-2-yl)-2,5-diphenyl tetrazolium bromide) was dissolved in PBS to obtain a final concentration of 5 mg/ml and filtered to sterilize and remove insoluble residue. The assay was carried out in 96-well, flat-bottomed microtiter plates. To each well, 200 μl of MT-4 cells (1 × 10^5 cells) in growth media was added. The plates were preincubated for 24 h at 37 °C to allow stabilization. Then, 50 μL of the test compounds (at a concentration of 4 mg/ml) were added to the first column of the well. With a multichannel pipette, 50 μL was transferred (in triplicate) from the wells labeled 1 to wells labeled 2, and such transfers were continued (serial dilution), moving from left to right, changing tips prior to mixing contents of the next column of wells. Finally, 50 μL was discarded from the wells in column 12. […] Each dilution was tested in triplicates. The negative control (NC) wells contained 50 μl of MT-4 cells in 0.5% DMSO [52]. […] A 96-well microtiter plate containing the test compounds and positive and negative controls was incubated at 37 °C in a humidified atmosphere of 5% CO2 for 5 days. After incubation, 20 μl of MTT reagent (5 mg/ml MTT in phosphate-buffered saline) was added to each test well and control well. The plate was further incubated at 37 °C in a CO2 incubator for 4 hours. After 4 hours of incubation, 100 μl of DMSO was added to dissolve the dark-blue formazan crystals from surviving cells. After the formazan crystals were dissolved completely, the resulting optical density (OD) readings were measured relative to the controls on an ELISA plate reader at 570 nm with a reference wavelength of 620 nm. For each extract and pure compound tested, 3 triplicate determinations were performed. […] The concentration that determined cell viability above 80% (CC20) was chosen as the maximum non-toxic concentration (MNTC).

SMILES | CC50 at 5 days [µg/mL]
C=C(C)[C@@H]1CC[C@]2(C)CC[C@]3(C)[C@H](CC[C@@H]4[C@@]5(C)CC[C@H](O)C(C)(C)[C@@H]5CC[C@]43C)[C@@H]12 [Compound 5, lupeol] | 141.8 ± 0.7 (≈ 332 µM)
C=C(C)[C@@H]1CC[C@]2(CO)CC[C@]3(C)[C@H](CC[C@@H]4[C@@]5(C)CC[C@H](O)C(C)(C)[C@@H]5CC[C@]43C)[C@@H]12 [Compound 4, betulin] | 31.7 ± 0.55 (≈ 71.7 µM)
C=C(C)[C@@H]1CC[C@]2(C)CC[C@]3(C)[C@H](CC[C@@H]4[C@@]5(C)CCC(=O)C(C)(C)[C@@H]5CC[C@]43C)[C@@H]12 [Compound 2, lupenone] | 32.5 ± 0.7 (≈ 76.4 µM)
CC[C@H](/C=C/[C@@H](C)[C@H]1CC[C@H]2[C@@H]3CC=C4C[C@@H](O)CC[C@]4(C)[C@H]3CC[C@]12C)C(C)C [Compound 7, stigmasterol] | 12.4 ± 10.9 (≈ 30 µM)

Same assay, conditions: human, MT-4 cells

SMILES | CC50 at 5 days [µg/mL]
COc1ccccc1COC(=O)c1ccccc1 [Compound 1, 2-methoxy benzyl benzoate] | 0.001 (≈ 0.00413 µM)

System: MT-4 cells
Assay: in vitro
Conditions: 5 days, MTT, concentration with cell viability above 80% (CC20), mean ± S.E.M (n = 3)
Method: as §1

SMILES | MNTC (maximum nontoxic concentration) [µg/mL]
C=C(C)[C@@H]1CC[C@]2(C)CC[C@]3(C)[C@H](CC[C@@H]4[C@@]5(C)CC[C@H](O)C(C)(C)[C@@H]5CC[C@]43C)[C@@H]12 [Compound 5, lupeol] | 75.75 ± 0.74
C=C(C)[C@@H]1CC[C@]2(CO)CC[C@]3(C)[C@H](CC[C@@H]4[C@@]5(C)CC[C@H](O)C(C)(C)[C@@H]5CC[C@]43C)[C@@H]12 [Compound 4, betulin] | 16.54 ± 0.35
C=C(C)[C@@H]1CC[C@]2(C)CC[C@]3(C)[C@H](CC[C@@H]4[C@@]5(C)CCC(=O)C(C)(C)[C@@H]5CC[C@]43C)[C@@H]12 [Compound 2, lupenone] | 14.17 ± 0.94
CC[C@H](/C=C/[C@@H](C)[C@H]1CC[C@H]2[C@@H]3CC=C4C[C@@H](O)CC[C@]4(C)[C@H]3CC[C@]12C)C(C)C [Compound 7, stigmasterol] | 4.70 ± 3.43

Same assay, conditions: 5 days, MTT, mean ± S.E.M (n = 3)

SMILES | EmaxC (maximum cytotoxic effect %) [%] | CC50 (50% cytotoxic concentration) [µg/mL]
C=C(C)[C@@H]1CC[C@]2(C)CC[C@]3(C)[C@H](CC[C@@H]4[C@@]5(C)CC[C@H](O)C(C)(C)[C@@H]5CC[C@]43C)[C@@H]12 [Compound 5, lupeol] | 70.28 ± 0.75 | 
C=C(C)[C@@H]1CC[C@]2(CO)CC[C@]3(C)[C@H](CC[C@@H]4[C@@]5(C)CC[C@H](O)C(C)(C)[C@@H]5CC[C@]43C)[C@@H]12 [Compound 4, betulin] | 55.13 ± 0.15 | 
C=C(C)[C@@H]1CC[C@]2(C)CC[C@]3(C)[C@H](CC[C@@H]4[C@@]5(C)CCC(=O)C(C)(C)[C@@H]5CC[C@]43C)[C@@H]12 [Compound 2, lupenone] | 38.53 ± 0.69 | 28.83 ± 0.54 (≈ 67.9 µM)
CC[C@H](/C=C/[C@@H](C)[C@H]1CC[C@H]2[C@@H]3CC=C4C[C@@H](O)CC[C@]4(C)[C@H]3CC[C@]12C)C(C)C [Compound 7, stigmasterol] | 43.71 ± 2.02 | 
COc1ccccc1COC(=O)c1ccccc1 [Compound 1, 2-methoxy benzyl benzoate] | 39.1 ± 2.22 | 

System: HIV
Assay: not given
Set-up: method as in ref 61 (Chaniad et al)
Conditions: ref 61 (Chaniad et al); read-out: IC50 against HIV; cited from earlier work

SMILES | IC50 [nM]
C=C(C)[C@@H]1CC[C@]2(CO)CC[C@]3(C)[C@H](CC[C@@H]4[C@@]5(C)CC[C@H](O)C(C)(C)[C@@H]5CC[C@]43C)[C@@H]12 [Compound 4, betulin] | 17700 ± 600

Biological target: HIV-1 RT-associated RNase H function
Assay: not given
Set-up: method as in ref 62 (Esposito et al)
Conditions: ref 62 (Esposito et al); cited from earlier work

SMILES | IC50, HIV-1 RT-associated RNase H function [nM]
C=C(C)[C@@H]1CC[C@]2(C)CC[C@]3(C)[C@H](CC[C@@H]4[C@@]5(C)CC[C@H](O)C(C)(C)[C@@H]5CC[C@]43C)[C@@H]12 [Compound 5, lupeol] | 11600
